Assay results reported in patent US7427616B2, “Condensed pyridines and pyrimidines with tie2 (TEK) activity” (AstraZeneca AB, priority 2002, dated 2008).

Biological target: T1, Tie2 receptor (Homo sapiens, UniProt Q02763)
T1 construct: one can use natural cell lines or primary cells which are known to express the receptor of choice; endogenous in cells; host or cells: EA.hy926/B3 cells (HUVEC named as alternative)
Test: Cellular Tie2 autophosphorylation assay (Test (b))
Assay type: cell-based
Settings: Ang1 ligand stimulated autophosphorylation of cellular Tie2 receptor, e.g. EA.hy926/B3 cells
Excerpt: b. Cellular Tie2 Autophosphorylation Assay
This assay is based on measuring the ability of compounds to inhibit autophosphorylation of the Tie2 receptor which normally leads to the production of “activated” receptor that in turn initiates the particular signal transduction pathways associated with the receptor function.
Autophosphorylation can be achieved by a number of means. It is known that expression of recombinant kinase domains in baculoviral systems can lead to the production of phosphorylated and activated receptor. […] In these cases the natural, external cell surface domain of the receptor has been replaced with that of a domain which is known to be readily dimerised via the addition of the appropriate ligand (e.g. TrkA-Tie2/NGF ligand (Marron, M. B., et al., 2000 Journal of Biological Chemistry: 275:39741-39746) or C-fms-Tie-1/CSF-1 ligand (Kontos, C. D., et al., 2002 Molecular and Cellular Biology: 22, 1704-1713). Thus when the chimaeric receptor expressed in a host cell line and the respective ligand is added, this induces autophosphorylation of the chimeric receptor's kinase domain. This approach has the advantage of often allowing a known (and often easily obtained) ligand to be used instead of having to identify and isolate the natural ligand for each receptor of interest. […]

T1 sequence (Q02763 23-1124): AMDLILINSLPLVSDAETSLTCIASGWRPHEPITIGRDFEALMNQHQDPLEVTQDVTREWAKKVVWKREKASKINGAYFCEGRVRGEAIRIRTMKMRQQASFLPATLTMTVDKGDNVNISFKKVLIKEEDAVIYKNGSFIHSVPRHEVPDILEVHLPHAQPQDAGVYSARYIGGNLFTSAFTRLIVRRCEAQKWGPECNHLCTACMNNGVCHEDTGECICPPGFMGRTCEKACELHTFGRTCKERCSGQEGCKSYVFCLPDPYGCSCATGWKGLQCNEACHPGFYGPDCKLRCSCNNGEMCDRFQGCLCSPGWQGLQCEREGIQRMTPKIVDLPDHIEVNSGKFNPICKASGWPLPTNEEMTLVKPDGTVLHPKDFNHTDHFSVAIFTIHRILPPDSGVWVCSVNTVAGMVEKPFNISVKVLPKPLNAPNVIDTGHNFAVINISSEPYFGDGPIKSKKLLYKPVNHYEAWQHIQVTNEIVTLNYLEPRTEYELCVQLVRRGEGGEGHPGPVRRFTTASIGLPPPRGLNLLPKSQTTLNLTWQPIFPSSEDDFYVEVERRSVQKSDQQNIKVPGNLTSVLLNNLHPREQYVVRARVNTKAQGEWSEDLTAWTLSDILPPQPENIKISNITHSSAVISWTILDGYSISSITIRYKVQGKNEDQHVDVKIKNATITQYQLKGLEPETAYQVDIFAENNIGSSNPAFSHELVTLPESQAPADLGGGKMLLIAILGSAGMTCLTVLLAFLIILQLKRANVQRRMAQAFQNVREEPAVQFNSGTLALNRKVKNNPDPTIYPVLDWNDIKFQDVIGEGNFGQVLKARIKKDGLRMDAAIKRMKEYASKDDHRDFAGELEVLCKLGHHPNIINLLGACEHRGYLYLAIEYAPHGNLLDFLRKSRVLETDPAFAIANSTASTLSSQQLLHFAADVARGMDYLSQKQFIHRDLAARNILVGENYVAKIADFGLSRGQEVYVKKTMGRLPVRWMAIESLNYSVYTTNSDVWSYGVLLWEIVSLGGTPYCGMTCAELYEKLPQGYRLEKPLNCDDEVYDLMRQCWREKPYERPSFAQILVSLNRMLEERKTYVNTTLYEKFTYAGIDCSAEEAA

IC50 [nM]	Structure (SMILES)
2700	Cn1cnc(-c2ccccc2)c1-c1nc2c(N)ncnc2s1 [Example 2, 2-(1-Methyl-4-phenyl-1H-imidazol-5-yl)[1,3]thiazolo[5,4-d]pyrimidin-7-amine]
2200	CSc1ncnc2sc(-c3c(-c4ccccc4)ncn3C)cc12 [Example 7, 6-(1-Methyl-4-phenyl-1H-imidazol-5-yl)-4-(methylthio)thieno[2,3d]pyrimidine]
